Values after ≈ are worked out from the molar mass of the structure shown. Where two headings read alike, the source gives them in different places. Each block holds one compound with its values, some of them ahead of it.
Key:
[1] = system: P. acnes NCTC 737; test: MIC assay; type: cell-based, Propionibacterium acnes
Experimental: 2. Propionibacterium spp.—the principal propionibacterial strain used in these studies was Propionibacterium acnes NCTC 737. This is the type strain of the genus; it is fully susceptible to antibiotics.
(§1) The Propionibacterium spp organisms were cultured and maintained on Wilkins-Chalgren Anaerobe Medium (agar and broth) at pH 6.0; cultures were incubated anaerobically at 37° C. for 72 hours.
This is a standard international method for quantitatively assessing the antimicrobial activity of a compound in a liquid medium. The method used a 96-well microtitre plate, capable of holding about 200 μl of liquid per well. […] The culture media were as described above for the relevant test organisms.
The wells were inoculated with a liquid suspension of freshly grown micro-organism and incubated under the conditions described above. After incubation, the microtitre plate was examined visually (with the aid of a light box) for cell pellets in and/or opaque wells, which would indicate microbial growth. The MIC value was recorded as the lowest concentration of test compound required to inhibit microbial growth, ie, the lowest concentration for which the liquid in the well remained clear.
The assays were conducted in duplicate and included both negative (culture medium only) and positive (culture medium, diluting solvent and inoculum) controls.

[2] = system: P. acnes NCTC 737; test: Supplemented disc diffusion assay (DDA + salt or lipid); type: cell-based, Propionibacterium acnes; details: 200 μg per disc; for DDA + lipid: agar supplemented with lipid; for DDA + salt: agar supplemented with salt
Experimental: The Propionibacterium spp organisms were cultured and maintained on Wilkins-Chalgren Anaerobe Medium (agar and broth) at pH 6.0; cultures were incubated anaerobically at 37° C. for 72 hours. A sterile paper disc was impregnated with a sample of the test compound and a minimum of 30 minutes allowed for the solvents to evaporate as far as possible. The disc was then placed on an agar plate onto which the test micro-organism had been inoculated. The plate was then incubated under the conditions described above, following which it was examined visually for signs of bacterial growth. If the test compound had antimicrobial activity, a circular zone of no growth would be obtained around the disc. The diameter of this zone of “inhibition” was measured using a ProtoCOL™ automated zone sizer (Synbiosis, Cambridge, UK). In general, a greater diameter and/or area of the zone of inhibition indicates a greater antimicrobial activity in the relevant test compound, although other factors such as test compound mobility through the agar gel may also influence the result. Either the DDA or the SDDA tests may be carried out using an agar gel supplemented with blood, lipid and/or salt to simulate some of the major components present in human skin and to assess whether these substances might reduce the antimicrobial activity observed for the test compounds. Performance under these conditions can provide a more reliable indication of activity on topical application. […] MIC, MBC and DDA assays, as described above, were carried out using BP and a range of different benzoquinones and hydroquinones. Supplemented DDA assays, in the presence of salt and lipid, were also conducted.

[3] = system: P. acnes NCTC 737; test: Synergy disc diffusion assay (SDDA); type: cell-based, Propionibacterium acnes; details: for SDDA area increase / SDDA increase: quinone + BP; for SDDA area increase: over larger single-compound zone; for SDDA increase: over larger single-compound zone diameter; for SDDA with BP: quinone combined with BP on one disc, 200 μg of each
Experimental: 2. Propionibacterium spp.—the principal propionibacterial strain used in these studies was Propionibacterium acnes NCTC 737.
as §1
This is a variation on the DDA method, in which two compounds are tested together for their combined antimicrobial activity. It provides a qualitative indication as to whether the compounds are likely to interact synergistically.
Two test compounds A and B were placed on a single paper disc and the above described DDA procedure repeated.
Each of the quinones was then subjected, in combination with BP, to the SDDA assay described above.
For all (S)DDA assays, 200 μg of each compound was loaded onto each disc.

[4] = system: S. aureus ATCC 29213; test: Synergy disc diffusion assay (SDDA); type: cell-based, Staphylococcus aureus; details: for SDDA area increase / SDDA increase: quinone + BP; for SDDA area increase: over larger single-compound zone; for SDDA increase: over larger single-compound zone diameter; for SDDA with BP: quinone combined with BP on one disc, 200 μg of each (thymoquinone 50 μg)
Description: 1. Staphylococcus aureus—the principal staphylococcal test micro-organism used in these studies was Staphylococcus aureus ATCC 29213. This strain is the one recommended for QC/QA purposes in Minimum Inhibitory Concentration (MIC) assays by the US Clinical and Laboratory Standards Institute (formerly the NCCLS), an FDA-recognised body. S. aureus ATCC 29213 is susceptible to beta-lactam antibiotics such as methicillin and to many other antibiotics in clinical use worldwide today. The staphylococci and enterococci were cultured and maintained on Mueller-Hinton Medium (agar and broth) at pH 7.2; they were incubated aerobically at 37° C. for 24 hours. This is a variation on the DDA method, in which two compounds are tested together for their combined antimicrobial activity. It provides a qualitative indication as to whether the compounds are likely to interact synergistically. Two test compounds A and B were placed on a single paper disc and the above described DDA procedure repeated. An increase in diameter of the zone of inhibition, compared to the greater of the zone diameters for the two compounds individually, was taken to indicate potential antimicrobial synergy. […] The larger the increase in zone size, the greater the likelihood of a synergistic interaction between the two test compounds. Each of the quinones was then subjected, in combination with BP, to the SDDA assay described above. In each case, increases in zone diameter (mm) and area (%) were measured with respect to those observed for the compound showing the larger zone diameters during the previous disc diffusion assays on the individual compounds. […] The exceptions were the thymoquinone assays, in which only 50 μg of the benzoquinone was used.

[5] = system: S. aureus ATCC 29213; test: MIC assay; type: cell-based, Staphylococcus aureus
Experimental: 1. Staphylococcus aureus—the principal staphylococcal test micro-organism used in these studies was Staphylococcus aureus ATCC 29213. This strain is the one recommended for QC/QA purposes in Minimum Inhibitory Concentration (MIC) assays by the US Clinical and Laboratory Standards Institute (formerly the NCCLS), an FDA-recognised body. […] The staphylococci and enterococci were cultured and maintained on Mueller-Hinton Medium (agar and broth) at pH 7.2; they were incubated aerobically at 37° C. for 24 hours. This is a standard international method for quantitatively assessing the antimicrobial activity of a compound in a liquid medium. The method used a 96-well microtitre plate, capable of holding about 200 μl of liquid per well. […] The culture media were as described above for the relevant test organisms. The wells were inoculated with a liquid suspension of freshly grown micro-organism and incubated under the conditions described above. After incubation, the microtitre plate was examined visually (with the aid of a light box) for cell pellets in and/or opaque wells, which would indicate microbial growth. The MIC value was recorded as the lowest concentration of test compound required to inhibit microbial growth, ie, the lowest concentration for which the liquid in the well remained clear. The assays were conducted in duplicate and included both negative (culture medium only) and positive (culture medium, diluting solvent and inoculum) controls.

[6] = P. acnes NCTC 737, Table 7 (Example 6)
[7] = S. aureus ATCC 29213, Table 1 (Example 1)
[8] = Cutibacterium acnes, NCTC737, P. acnes NCTC 737, Table 7 (Example 6), read-out: MIC
[9] = Cutibacterium acnes, NCTC737, P. acnes NCTC 737 (resistance None), Table 9 (Example 8)
[10] = Cutibacterium acnes, NCTC737, P. acnes NCTC 737, Table 7 (Example 6)
[11] = S. aureus ATCC 29213, Table 5 (Example 5)
[12] = Staphylococcus aureus, ATCC29213, S. aureus ATCC 29213, Table 1 (Example 1), read-out: MIC

MIC [1, 6]: >250 µg/mL | MIC [5, 7]: 62.5 µg/mL (≈ 568 µM)
Structure (SMILES): Oc1ccc(O)cc1 [p-hydroquinone]
DDA + lipid [2]: 0.0 mm | DDA + salt [2]: 0.0 mm | SDDA area increase [3]: 87.01% | SDDA increase [3]: 8.91 mm | SDDA with BP [3]: 33.16 mm | SDDA area increase [4]: 210.15% | SDDA increase [4]: 14.42 mm | SDDA with BP [4]: 33.36 mm

Structure (SMILES): O=C1C=CC(=O)C=C1 [p-benzoquinone]
MIC [1, 8]: 62.5 µg/mL (≈ 578 µM) | DDA + lipid [2]: 37.98 mm | DDA + salt [2]: 31.44 mm | SDDA area increase [3]: 77.78% | SDDA increase [3]: 8.29 mm | SDDA with BP [3]: 33.16 mm | SDDA area increase [4]: 37.25% | SDDA increase [4]: 5.03 mm | SDDA with BP [4]: 34.38 mm

MIC [1, 6]: 7.8 µg/mL (≈ 56.5 µM) | MIC [5, 7]: 7.8 µg/mL (≈ 56.5 µM)
Structure (SMILES): CCc1cc(O)ccc1O [2-ethyl-p-hydroquinone]
DDA + lipid [2]: 0.0 mm | DDA + salt [2]: 9.38 mm | SDDA area increase [3]: 84.28% | SDDA increase [3]: 8.23 mm | SDDA with BP [3]: 31.25 mm | SDDA area increase [4]: 105.49% | SDDA increase [4]: 9.13 mm | SDDA with BP [4]: 30.19 mm

Structure (SMILES): O=C(OOC(=O)c1ccccc1)c1ccccc1 [benzoyl peroxide]
MIC [1, 9]: 15.6 µg/mL (≈ 64.4 µM) | MIC [1, 10]: 31.2 µg/mL (≈ 129 µM) | MIC [5, 11]: 250 µg/mL (≈ 1030 µM) | MIC [5, 12]: 250 µg/mL (≈ 1030 µM)

MIC [1, 8]: 15.6 µg/mL (≈ 95 µM) | MIC [5, 12]: 7.8 µg/mL (≈ 47.5 µM)
Structure (SMILES): CC1=CC(=O)C(C(C)C)=CC1=O [thymoquinone, 2-iso-propyl-5-methyl-p-benzoquinone]
DDA + lipid [2]: 49.01 mm | DDA + salt [2]: 46.49 mm | SDDA area increase [3]: 79.46% | SDDA increase [3]: 9.33 mm | SDDA with BP [3]: 36.79 mm | SDDA area increase [4]: 120.91% | SDDA increase [4]: 7.60 mm | SDDA with BP [4]: 23.24 mm

MIC [1, 6]: 7.8 µg/mL (≈ 56.5 µM) | MIC [5, 7]: 7.8 µg/mL (≈ 56.5 µM)
Structure (SMILES): Cc1c(O)ccc(O)c1C [2,3-dimethyl-p-hydroquinone]
DDA + lipid [2]: 13.75 mm | DDA + salt [2]: 14.38 mm | SDDA area increase [3]: 113.68% | SDDA increase [3]: 10.63 mm | SDDA with BP [3]: 33.65 mm | SDDA area increase [4]: 52.39% | SDDA increase [4]: 7.83 mm | SDDA with BP [4]: 41.25 mm

Structure (SMILES): CC(C)(C)c1cc(O)ccc1O [TBHQ, t-butyl hydroquinone]
MIC [1, 9]: 7.8 µg/mL (≈ 46.9 µM) | MIC [1, 10]: 7.8 µg/mL (≈ 46.9 µM) | DDA + lipid [2]: 10.37 mm | DDA + salt [2]: 19.48 mm | SDDA area increase [3]: 211.51% | SDDA increase [3]: 18.55 mm | SDDA with BP [3]: 42.80 mm | SDDA area increase [4]: 169.30% | SDDA increase [4]: 26.77 mm | SDDA with BP [4]: 68.54 mm | MIC [5, 11]: 7.8 µg/mL (≈ 46.9 µM) | MIC ([5]; Staphylococcus aureus, ATCC29213): 7.8 µg/mL (≈ 46.9 µM)
